Legend:
[1] = type: physicochemical; details: 4°C, buffer A pH 6.0 with albumin
Method: The assay reaction is carried out in an aqueous solution of 0.01 M potassium phosphate, 0.15 M potassium chloride, pH 6.0, hereinafter referred to as buffer A. In the assay procedure, buffer A has added thereto about 1 mg of albumin per ml and other additons as noted.
As previously indicated, a binder cofactor comprising reduced nicotinamide adenine dinucleotide phosphate or NADPH2 was added to the reaction solution in the amounts noted below at the time of the assay.

[2] = molecular target: T1, folic acid reductase (binder factor) (Cavia porcellus, UniProt H0VYF1); assay: Reliability, recovery and sensitivity of the radiochemical ligand binding assay for MTX in serum and cerebrospinal fluid; design: species or system guinea pig; details: presence of ascorbic acid
T1 construct: NADPH as cofactor
T1 sequence (H0VYF1 1-187): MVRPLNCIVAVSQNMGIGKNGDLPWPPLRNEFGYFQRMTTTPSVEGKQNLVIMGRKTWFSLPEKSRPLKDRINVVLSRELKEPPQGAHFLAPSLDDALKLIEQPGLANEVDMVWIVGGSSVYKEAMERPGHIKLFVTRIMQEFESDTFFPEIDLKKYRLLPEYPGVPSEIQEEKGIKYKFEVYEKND
Method: (§1) The samples in Table II were assayed by sequential binding procedures in accordance with the present invention, and they were assayed at multiple dilutions as previously described.

[3] = molecular target: T1, folic acid reductase (binder factor); assay: Direct binding of labeled folates to the binder preparation; design: species or system guinea pig; details: at the concentration of reactants used in the standard curves
Method: (§2) The binder factor or folic acid reductase was prepared from guinea pig liver according to the method of Bertino et al, "Dihydrofolate Reductase From Guinea Pig Liver And Small Intestine,"Biochemical Pharmacology 15, pages 563 - 571, 1966 modified as noted below. The livers from freshly killed guinea pigs were rinsed in cold isotonic saline, suspended in 3 volumes (weight/volume) of the same, and homogenized in an Omnimixer (Sorvall, Inc.) for two minutes at 90 volts. The pH of the homogenate was adjusted to 5.1 with 1.0 N HCl. The homogenate was centrifuged at 12,000 × G for 15 minutes, and the pellet was discarded.
Ammonium sulfate was added to the supernatant to 55% of saturation at 4°C and, when necessary, the pH was adjusted to 6.0 with 1.0 N KOH. After standing for 30 minutes at 4°C, the precipitate was collected by centrifugation for 15 minutes at 12,000 × G and discarded. The supernatant was brought to a final ammonium sulfate concentration of 70% of saturation, again keeping the pH at 6.0, and stored overnight at 4°C. The resultant precipitate was recovered by centrifugation, as above, and dissolved in a minimal volume of 0.01 M potassium phosphate buffer, pH 7.0, which was 0.01 M with respect to KCl. […]

[4] = molecular target: T1, folic acid reductase (binder factor); assay: Specificity of the binder: competition with ^3H-MTX in direct competitive and sequential binding assays; design: species or system guinea pig; details: other folate derivatives up to 200 fold excess relative to ^3H-MTX
Method: as §2, with “discarded. […]” for “discarded.”
At the end of the first incubation period, ^3 H-MTX was added and the incubation was continued for an additional 10 minutes. […] After centrifugation for 10 minutes at 2,000 - 3,000 × G to pellet the charcoal, the radioactivity in the clear supernatant was determined by liquid scintillation counting. […]
The specificity of the binder was determined by incubating the following compounds in direct competitive and sequential binding assays with ^3 H-MTX: pteroylmonoglutamate (Folic Acid, Nutritional Biochemicals); 5-methyltetrahydrofolic acid (Sigma Chemical Co.); 5-formyltetrahydrofolicacid (Leucovorin, Lederle Co.); adenosine, guanylic acid, para-aminobenzoylglutamate and 6-carboxypterin (Sigma Chemical Co.); pteroylheptaglutamate and aminopterin.

[5] = molecular target: T1, folic acid reductase (binder factor); assay: Cofactor dependency of ^3H-MTX binding; design: species or system guinea pig; details: for binding of ^3H-MTX with cofactor substituted for NADPH2: 1,000 times the optimal concentration of NADPH2; for inhibition of the MTX binding reaction: NADPH2 in slight excess, until concentration reached several thousand fold excess to NADPH2
Method: as §2
Ammonium sulfate was added to the supernatant to 55% of saturation at 4°C and, when necessary, the pH was adjusted to 6.0 with 1.0 N KOH. After standing for 30 minutes at 4°C, the precipitate was collected by centrifugation for 15 minutes at 12,000 × G and discarded. The supernatant was brought to a final ammonium sulfate concentration of 70% of saturation, again keeping the pH at 6.0, and stored overnight at 4°C. The resultant precipitate was recovered by centrifugation, as above, and dissolved in a minimal volume of 0.01 M potassium phosphate buffer, pH 7.0, which was 0.01 M with respect to KCl. The burgundy colored solution was applied to a Sephadex G-50 column (5 × 100 cm) equilibrated in 0.01 M potassium phosphate, pH 7.0, and 0.2 M KCl; the same buffer was used for elution of the sample.
The eluted material from the column was collected in 5 ml samples, and the binder factor or folic acid reductase eluted from the column behind the excluded volume which was marked by the hemoglobin peak. Sephadex permitted a rapid removal of ammonium sulfate and also gave a partial purification of the binder. Yields of 60% to 80% of the activity present in the crude homogenate were obtained with this methodology.
The maximum binding was identical to the binding observed in the presence of 0.1 μmole NADPH2.

[6] = Endogenous MTX level in serum and CSF of patients who had received MTX; type: in vivo; details: 6 hours to 6 days after oral, parenteral or intrathecal MTX
Method: as §1

NC(=O)C1=CN([C@@H]2O[C@H](COP(=O)(O)OP(=O)(O)OC[C@H]3O[C@@H](n4cnc5c(N)ncnc54)[C@H](OP(=O)(O)O)[C@@H]3O)[C@@H](O)[C@H]2O)C=CC1 [NADPH2, reduced nicotinamide adenine dinucleotide phosphate]
stability in buffer A with albumin [1]: stable for several days

O=C1O[C@H]([C@@H](O)CO)C(O)=C1O [ascorbic acid]
effect on the assay [2]: did not affect the assay

[14CH3]N1c2c([nH]c(N)nc2=O)NCC1CNc1ccc(C(=O)N[C@@H](CCC(=O)O)C(=O)O)cc1 (some centres unmarked) [^14 C-5-methyltetrahydrofolic acid]
binding of labeled folate by the binder preparation [3]: did not bind

Nc1nc(N)c2nc(CNc3ccc(C(=O)N[C@@H](CCC(=O)O)C(=O)O)cc3)cnc2n1 [aminopterin, N-{p-[(2,4-diamino-6-pteridylmethyl)amino]benzoyl}-glutamic acid]
competition for ^3H-MTX binding sites [4]: competed for ^3 H-MTX binding sites

Nc1nc2ncc(CNc3ccc(C(=O)N[C@@H](CCC(=O)O)C(=O)O)cc3)nc2c(=O)[nH]1 [^3 H-folic acid]
binding of labeled folate by the binder preparation [3]: did not bind

NC(=O)c1ccc[n+]([C@@H]2O[C@H](COP(=O)([O-])OP(=O)(O)OC[C@H]3O[C@@H](n4cnc5c(N)ncnc54)[C@H](OP(=O)(O)O)[C@@H]3O)[C@@H](O)[C@H]2O)c1 [NADP, Nicotinamide adenine dinucleotide phosphate]
binding of ^3H-MTX with cofactor substituted for NADPH2 [5]: did not allow binding of ^3 H-MTX | inhibition of the MTX binding reaction [5]: did not inhibit the binding reaction

NC(=O)c1ccc[n+]([C@@H]2O[C@H](COP(=O)([O-])OP(=O)(O)OC[C@H]3O[C@@H](n4cnc5c(N)ncnc54)[C@H](O)[C@@H]3O)[C@@H](O)[C@H]2O)c1 [NAD, nicotinamide adenine dinucleotide]
binding of ^3H-MTX with cofactor substituted for NADPH2 [5]: did not allow binding of ^3 H-MTX | inhibition of the MTX binding reaction [5]: did not inhibit the binding reaction

CN(Cc1cnc2nc(N)nc(N)c2n1)c1ccc(C(=O)N[C@@H](CCC(=O)O)C(=O)O)cc1 [MTX, N-[p-(2,4-diamino-6-pteridylmethyl)methylaminobenzoyl]-glutamic acid]
Endogenous MTX, CSF [6]: 8 Nanograms per ml

NC(=O)C1=CN([C@@H]2O[C@H](COP(=O)(O)OP(=O)(O)OC[C@H]3O[C@@H](n4cnc5c(N)ncnc54)[C@H](O)[C@@H]3O)[C@@H](O)[C@H]2O)C=CC1 [NADH]
maximum binding of MTX obtained with cofactor substituted for NADPH2 ([5]; concentrations up to 200,000 times the optimal amount of NADPH2): 40%

Source: US3981983A, “Rapid, radiochemical-ligand binding assay for methotrexate” (priority 1975, dated 1976)
